Assay results reported in patent US20160041192A1 (Ameritox, Ltd., priority 2014, published 2016).
One block for each compound: values may come before it.

Columns and labels:
[1] = post oral dosing; cited from earlier work
[2] = human urine; major defined by ≧10% total drug exposure (Baselt 2014); cited from earlier work
[3] = human, in vivo
Description: (§1) Samples were subsequently vortexed and centrifuged prior to the injection of 5 μL on the QQQ. Each patient sample was analyzed twice to ensure accuracy.
(§2) Samples were subsequently vortexed and centrifuged prior to the injection of 5 μL on the QQQ.
as §2, §1, §2, §2, §2, §2, §2

[4] = Urine test of patients prescribed Seroquel after enzymatic hydrolysis with recombinant β-glucuronidase, QQQ; assay type: in vivo, human; conditions: patient prescribed Seroquel, various doses
Description: 100 μL of each patient specimen was diluted with 400 μL of a “master mix” that included 1.6 μg/mL of quetiapine-D8 (internal standard), 0.06 M phosphate buffer, and at least 1450 U of a recombinant β-glucuronidase enzyme.

[5] = cited from earlier work
[6] = humans; cited from earlier work

SMILES: c1ccc2c(c1)N=C(N1CCNCC1)c1ccccc1S2 [N-Desalkyl Quetiapine, N-Desalkyl Quetiapine (Norquetiapine)]
share of the total radioactivity in plasma [1]: 10%
abundance in urine [2]: only small quantities

SMILES: O=C(O)COCCN1CCN(C2=Nc3ccccc3Sc3ccccc32)CC1 [Quetiapine Carboxylic Acid]
Urine concentration, Pre-Hydrolysis Results, Subject HR [3]: >5000 ng/mL
Urine concentration, Pre-Hydrolysis Results, Subject T [3]: 6 ng/mL
Urine concentration, Pre-Hydrolysis Results, Subject W [3]: 5 ng/mL
Urine concentration, Pre-Hydrolysis Results, Subject eight [3]: >5000 ng/mL
Urine concentration, Pre-Hydrolysis Results, Subject eighteen [3]: >5000 ng/mL
Urine concentration, Pre-Hydrolysis Results, Subject eleven [3]: >5000 ng/mL
Urine concentration, Pre-Hydrolysis Results, Subject fifteen [3]: >5000 ng/mL
Urine concentration, Pre-Hydrolysis Results, Subject five [3]: >5000 ng/mL
Urine concentration, Pre-Hydrolysis Results, Subject four [3]: >5000 ng/mL
Urine concentration, Pre-Hydrolysis Results, Subject fourteen [3]: >5000 ng/mL
Urine concentration, Pre-Hydrolysis Results, Subject nine [3]: >5000 ng/mL
Urine concentration, Pre-Hydrolysis Results, Subject nineteen [3]: 5 ng/mL
Urine concentration, Pre-Hydrolysis Results, Subject one [3]: >5000 ng/mL
Urine concentration, Pre-Hydrolysis Results, Subject seven [3]: >5000 ng/mL
Urine concentration, Pre-Hydrolysis Results, Subject seventeen [3]: >5000 ng/mL
Urine concentration, Pre-Hydrolysis Results, Subject sixteen [3]: >5000 ng/mL
Urine concentration, Pre-Hydrolysis Results, Subject thirteen [3]: >5000 ng/mL
Urine concentration, Pre-Hydrolysis Results, Subject three [3]: >5000 ng/mL
Urine concentration, Pre-Hydrolysis Results, Subject twelve [3]: >5000 ng/mL
Urine concentration, Pre-Hydrolysis Results, Subject twenty [3]: >5000 ng/mL
Urine concentration, Pre-Hydrolysis Results, Subject twenty-five [3]: >5000 ng/mL
Urine concentration, Pre-Hydrolysis Results, Subject twenty-four [3]: >5000 ng/mL
Urine concentration, Pre-Hydrolysis Results, Subject twenty-three [3]: 10 ng/mL
Urine concentration, Pre-Hydrolysis Results, Subject twenty-two [3]: >5000 ng/mL
abundance in urine [2]: major

SMILES: [O-][S+]1c2ccccc2N=C(N2CCN(CCOCCO)CC2)c2ccccc21 (centres unmarked) [Quetiapine Sulfoxide]
Urine concentration, Post-Hydrolysis Results, Subject W [4]: ND (Indicates that the listed parent or metabolite compound was either not detected or detected below the established cut-off of 5 ng/mL indicating a negative result for that particular subject.)
Urine concentration, Pre-Hydrolysis Results, Average [3]: 2318 ng/mL
Urine concentration, Pre-Hydrolysis Results, Maximum Value [3]: >5000 ng/mL
Urine concentration, Pre-Hydrolysis Results, Median Value [3]: 2143 ng/mL
Urine concentration, Pre-Hydrolysis Results, Subject HR [3]: >5000 ng/mL
Urine concentration, Pre-Hydrolysis Results, Subject eight [3]: >5000 ng/mL
Urine concentration, Pre-Hydrolysis Results, Subject eighteen [3]: >5000 ng/mL
Urine concentration, Pre-Hydrolysis Results, Subject eleven [3]: 2143 ng/mL
Urine concentration, Pre-Hydrolysis Results, Subject fifteen [3]: 740 ng/mL
Urine concentration, Pre-Hydrolysis Results, Subject five [3]: 4484 ng/mL
Urine concentration, Pre-Hydrolysis Results, Subject four [3]: >5000 ng/mL
Urine concentration, Pre-Hydrolysis Results, Subject fourteen [3]: >5000 ng/mL
Urine concentration, Pre-Hydrolysis Results, Subject nine [3]: >5000 ng/mL
Urine concentration, Pre-Hydrolysis Results, Subject one [3]: >5000 ng/mL
Urine concentration, Pre-Hydrolysis Results, Subject seven [3]: >5000 ng/mL
Urine concentration, Pre-Hydrolysis Results, Subject seventeen [3]: >5000 ng/mL
Urine concentration, Pre-Hydrolysis Results, Subject six [3]: 1252 ng/mL
Urine concentration, Pre-Hydrolysis Results, Subject sixteen [3]: 2971 ng/mL
Urine concentration, Pre-Hydrolysis Results, Subject thirteen [3]: >5000 ng/mL
Urine concentration, Pre-Hydrolysis Results, Subject three [3]: >5000 ng/mL
Urine concentration, Pre-Hydrolysis Results, Subject twelve [3]: >5000 ng/mL
Urine concentration, Pre-Hydrolysis Results, Subject twenty [3]: >5000 ng/mL
Urine concentration, Pre-Hydrolysis Results, Subject twenty-five [3]: >5000 ng/mL
Urine concentration, Pre-Hydrolysis Results, Subject twenty-four [3]: >5000 ng/mL
Urine concentration, Pre-Hydrolysis Results, Subject twenty-one [3]: >5000 ng/mL
Urine concentration, Pre-Hydrolysis Results, Subject twenty-two [3]: >5000 ng/mL
Urine concentration, Pre-Hydrolysis Results, Subject two [3]: >5000 ng/mL
abundance in urine [2]: major

Urine concentration, Post-Hydrolysis Results, Subject T [4]: 86 ng/mL
Urine concentration, Post-Hydrolysis Results, Subject eleven [4]: 4059 ng/mL
Urine concentration, Post-Hydrolysis Results, Subject fifteen [4]: >5000 ng/mL
Urine concentration, Post-Hydrolysis Results, Subject four [4]: 2928 ng/mL
Urine concentration, Post-Hydrolysis Results, Subject nine [4]: 1494 ng/mL
Urine concentration, Post-Hydrolysis Results, Subject nineteen [4]: 29 ng/mL
Urine concentration, Post-Hydrolysis Results, Subject seventeen [4]: >5000 ng/mL
Urine concentration, Post-Hydrolysis Results, Subject sixteen [4]: 3019 ng/mL
Urine concentration, Post-Hydrolysis Results, Subject twenty [4]: >5000 ng/mL
Urine concentration, Post-Hydrolysis Results, Subject twenty-five [4]: 2579 ng/mL
Urine concentration, Post-Hydrolysis Results, Subject twenty-three [4]: 14 ng/mL
Urine concentration, Pre-Hydrolysis Results, Average [3]: 838 ng/mL
Urine concentration, Pre-Hydrolysis Results, Maximum Value [3]: 4999 ng/mL
Urine concentration, Pre-Hydrolysis Results, Median Value [3]: 287 ng/mL
Urine concentration, Pre-Hydrolysis Results, Minimum Value [3]: 17 ng/mL
Urine concentration, Pre-Hydrolysis Results, Subject HR [3]: 4574 ng/mL
Urine concentration, Pre-Hydrolysis Results, Subject eight [3]: 120 ng/mL
Urine concentration, Pre-Hydrolysis Results, Subject eighteen [3]: 755 ng/mL
Urine concentration, Pre-Hydrolysis Results, Subject eleven [3]: 17 ng/mL
Urine concentration, Pre-Hydrolysis Results, Subject fifteen [3]: 1118 ng/mL
Urine concentration, Pre-Hydrolysis Results, Subject five [3]: 77 ng/mL
Urine concentration, Pre-Hydrolysis Results, Subject four [3]: 187 ng/mL
Urine concentration, Pre-Hydrolysis Results, Subject fourteen [3]: 917 ng/mL
Urine concentration, Pre-Hydrolysis Results, Subject one [3]: 269 ng/mL
Urine concentration, Pre-Hydrolysis Results, Subject seven [3]: 873 ng/mL
Urine concentration, Pre-Hydrolysis Results, Subject seventeen [3]: 315 ng/mL
Urine concentration, Pre-Hydrolysis Results, Subject six [3]: 77 ng/mL
Urine concentration, Pre-Hydrolysis Results, Subject sixteen [3]: 97 ng/mL
Urine concentration, Pre-Hydrolysis Results, Subject thirteen [3]: 1137 ng/mL
Urine concentration, Pre-Hydrolysis Results, Subject three [3]: 304 ng/mL
Urine concentration, Pre-Hydrolysis Results, Subject twelve [3]: 361 ng/mL
Urine concentration, Pre-Hydrolysis Results, Subject twenty [3]: 208 ng/mL
Urine concentration, Pre-Hydrolysis Results, Subject twenty-one [3]: 137 ng/mL
Urine concentration, Pre-Hydrolysis Results, Subject twenty-two [3]: 222 ng/mL
Urine concentration, Pre-Hydrolysis Results, Subject two [3]: 4999 ng/mL
SMILES: OCCOCCN1CCN(C2=Nc3ccccc3Sc3ccccc32)CC1 [Quetiapine, 2-(2-(4-dibenzo[b,f][1,4]thiazepine-11-yl-1-piperazinyl)ethoxy) ethanol, reference compound]
share of the total radioactivity in plasma [1]: 24%
time to steady state serum concentrations ([5]; days of dosing): 2 days
increase of bioavailability ([5]; dosing with a light meal (~300 calories)): ~20%
mean elimination half-life ([5]; in vivo): 6 h
absorption ([5]; oral administration): rapidly absorbed
Urine concentration, Post-Hydrolysis Results, Subject W [4]: ND (Indicates that the listed parent or metabolite compound was either not detected or detected below the established cut-off of 5 ng/mL indicating a negative result for that particular subject.)
excreted in the feces [6]: 20%
recovered in the urine [6]: 73%
